Experimental data taken from article PMC12259270, “Sensory neuron–expressed FGF13 controls nociceptive signaling in diabetic neuropathy models” (The Journal of Clinical Investigation, 2025).
Residues, ends and D or L forms follow the SMILES beside them. *: point of attachment. NHPh = c1ccc(N*)cc1

System: Na+ currents in hIPSC-derived sensory neurons (RealDRG)
Experiment: Whole-cell voltage clamp, hIPSC-derived sensory neurons (RealDRG) with Nav1.8 blocker A-803467
Assay type: cell-based, human
Conditions: for Activation / Peak Density / Steady-State inactivation / Tau (τ) / Long-term inactivation, 2nd Pulse / Long-term inactivation, 3rd Pulse / Long-term inactivation, 4th Pulse: RealDRG
Experimental: Next, we conducted whole-cell patch-clamp electrophysiological recordings in hIPSC-derived sensory neurons under three conditions: unstimulated and treated with 0.07% ethanol (capsaicin vehicle), treated with capsaicin (100 nM, 10 minutes), and treated with capsaicin plus SB-366791 (10 μM), a selective TRPV1 inhibitor. Each group was exposed to either vehicle (0.01% DMSO) or PW164 (50 μM), with all recordings performed in the presence of the Nav1.8 blocker A-803467 (300 nM) ([41]). The experimental groups are color coded in Figure 2A. Capsaicin caused potentiation of INa (Figure 2A) and induced hyperpolarizing shifts in the V1/2 of activation (Figure 2B) and SSI (Figure 2C). […] Next, we investigated whether silencing FGF13 could replicate PW164’s effects and prevent additional activity of the compound. hIPSC-derived sensory neurons were transfected with a previously validated pAAV-shFGF13-GFP construct ([42]) (Supplemental Figure 8). […] Neither PW164 nor FGF13 silencing affected Na+ currents in neurons transfected with pAAV-shCTRL-GFP or pAAV-shFGF13-GFP, whether unstimulated or treated with capsaicin in the presence of ProTx II (Supplemental Figure 9 and Supplemental Table 6). Thus, PW164 selectively modulated FGF13-dependent Na^+ current sensitization via TRPV1, with FGF13 silencing mimicking and validating PW164’s effect. […]
Whole-cell patch clamp electrophysiology
HEK293-Nav1.7 cells, HEK293 stably expressing human Nav1.6 (HEK-Nav1.6), HEK293 stably expressing human Nav1.5 (HEK-Nav1.5), human hIPSC-derived sensory neurons (RealDRGTM from Anatomic Incorporated 1020F1-1M) and donor-derived DRG neurons were plated at low density on glass coverslips and processed for whole-cell patch clamp electrophysiology in voltage-clamp and/or current clamp mode. Whole-cell patch electrophysiological experiments were conducted following previously published studies (26). Current densities were obtained by dividing INa amplitude by membrane capacitance. Current –voltage relationships were generated by plotting current density as a function of the […]. Conductance (G Na) was calculated by the […]
where INa is the current amplitude at voltage Vm, and Erev is the Na+ reversal potential.
Activation curves were derived by plotting normalized GNa as a function of test potential and fitted using […]
Where GNa,Max is the maximum conductance, Va is the membrane potential of half-maximal activation, Em is the membrane voltage and k is the slope factor. For steady -state inactivation, normalized current amplitude (INa/INa,Max) at the test potential was plotted as a function of prepulse potential (Vm) and fitted using the […]
Where Vh is the potential of half-maximal inactivation, E m is the membrane voltage, and k is the slope factor.
Transient INa inactivation decay was estimated with the standard exponential equation. Inactivation time constant (tau, τ) was fitted with the following equation: […]
where I(t) is the amplitude of the current at time t and Iss is the steady-state current during a single voltage-step.
The goodness of fitting was determined by correlation coefficient (R), and the cutoff of R was set at 0.85. To observe effects on long-term inactivation (LTI), a four-step protocol was employed during which cells were subjected to four 0 mV, 20 ms depolarization pulses separated by −90 mV, 40 ms recovery intervals. To control for various cell sizes, the current densities were calculated by dividing INa peak current amplitude/membrane capacitance (Cm). To represent the fraction of channels entering into LTI, the peak INa observed during depolarization cycles 2-4 was normalized to the peak INa observed during depolarization cycle 1 (INa/INa,Cycle 1) and plotted as a function of the depolarization cycle.
The cumulative (frequency-dependent) use-dependency was determined by applying 20 pulses with a depolarization to −10 mV (50 ms duration) and 50 ms recovery intervals with a train of 20 pulses at 10 Hz from a holding potential at -70 mV. […]

[1] = + A-803467, Control (pAAV-GFP) + ZL192
[2] = + A-803467, Sh (pAAV-shFGF13-GFP) + ZL192
[3] = + Nav1.8 blocker A-803467, Naive + ZL192
[4] = + Nav1.8 blocker A-803467, Naïve + ZL192

CC(=O)N[C@@H](Cc1ccccc1)C(=O)N[C@@H](CC(C)C)C(=O)N1CCC[C@H]1C(=O)N[C@@H](CCCCN)C(=O)Nc1ccccc1 [ZL192] (Ac-FLPK-NHPh)
Activation [1]: −29.64 ± 0.92 mV
Peak Density [1]: −189.79 ± 15.05 pA/pF
Steady-State inactivation [1]: −70.68 ± 1.76 mV
Tau (τ) [1]: 1.09 ± 0.05 ms
Long-term inactivation, 2nd Pulse (+ A-803467, Control + ZL192): −90.69 ± 2.00 % maximal Na+ current
Long-term inactivation, 3rd Pulse (+ A-803467, Control + ZL192): −89.18 ± 2.37 % maximal Na+ current
Long-term inactivation, 4th Pulse (+ A-803467, Control + ZL192): −87.9 ± 2.75 % maximal Na+ current
Activation [2]: −22.84 ± 1.28 mV
Peak Density [2]: −77.34 ± 6.83 pA/pF
Steady-State inactivation [2]: −61.77 ± 2.40 mV
Tau (τ) [2]: 1.23 ± 0.05 ms
Long-term inactivation, 2nd Pulse (+ A-803467, Sh + Zl192): −84.46 ± 3.81 % maximal Na+ current
Long-term inactivation, 3rd Pulse (+ A-803467, Sh + Zl192): −82.09 ± 3.89 % maximal Na+ current
Long-term inactivation, 4th Pulse (+ A-803467, Sh + Zl192): −80.59 ± 4.08 % maximal Na+ current
Activation [3]: −29.92 ± 0.79 mV
Peak Density [3]: −181.06 ± 13.74 pA/pF
Steady-State inactivation [3]: −72.03 ± 0.94 mV
Tau (τ) [3]: 1.31 ± 0.06 ms
Long-term inactivation, 2nd Pulse [4]: −90.95 ± 1.82 % maximal Na+ current
Long-term inactivation, 3rd Pulse [4]: −88.17 ± 2.02 % maximal Na+ current
Long-term inactivation, 4th Pulse [4]: −86.7 ± 1.7 % maximal Na+ current
effect on INa in naive neurons (ZL192 50 μM, no triggering stimuli): potentiated INa
